Data on one compound can be found in patent US11027029B2, “Peptide thiourea derivative, radioisotope labeled compound containing same, and pharmaceutical composition containing same as active ingredient for treating or diagnosing prostate cancer” (CELLBION CO., LTD, priority 2015, dated 2021).

For the experiment, the target named is T1, PSMA positive 22Rv1 cells (Homo sapiens, UniProt Q04609).
T1 construct: endogenous in cells; host or cells: 22Rv1 prostate cancer cells
Briefly: In vitro competitive inhibition cell binding test against I-125-MIP-1072. The following applies: 1.85 kBq I-125-MIP-1072, 1 hour, nonlinear regression analysis, read-out: IC50 (inhibition of binding between 22Rv1 cells and I-125-MIP-1072). The method, then:
To perform in vitro competitive inhibition cell binding test of Ga-NOTA-SCN-GUL, the following experiment was conducted.
The PSMA positive prostate cancer cell line 22Rv1 was loaded in a 24-well plate at the density of 2×10^5 cells/well, followed by culture in a 37[…] 5% CO2 incubator for 24 hours. Ga-NOTA-SCN-GUL prepared in Example 2 was diluted 2-fold serially with the cell culture medium containing 0.5% bovine serum albumin. The diluted sample was added to the cultured cells (0.5 mL/well), to which 1.85 kBq (S)-2-(3-((S)-1-carboxy-5-((4-iodobenzyl)amino)pentyl)ureido)pentanedioic acid (I-125-MIP-1072) was added (0.5 mL/well). After well mixed, the mixture was cultured in a 37[…] 5% CO2 incubator for 1 hour. The culture medium was discarded, and the cells were washed with fresh medium twice, to which 0.5% sodium dodecyl sulfate (SDS) dissolved in PBS was added (1 mL/well). The mixture was gently shaken for complete dissolving, and then loaded in a 5 mL disposable plastic test tube. Then, the radioactivity was measured with a gamma counter.

Each structure is given as a SMILES string.

T1 sequence (Q04609 whole entry): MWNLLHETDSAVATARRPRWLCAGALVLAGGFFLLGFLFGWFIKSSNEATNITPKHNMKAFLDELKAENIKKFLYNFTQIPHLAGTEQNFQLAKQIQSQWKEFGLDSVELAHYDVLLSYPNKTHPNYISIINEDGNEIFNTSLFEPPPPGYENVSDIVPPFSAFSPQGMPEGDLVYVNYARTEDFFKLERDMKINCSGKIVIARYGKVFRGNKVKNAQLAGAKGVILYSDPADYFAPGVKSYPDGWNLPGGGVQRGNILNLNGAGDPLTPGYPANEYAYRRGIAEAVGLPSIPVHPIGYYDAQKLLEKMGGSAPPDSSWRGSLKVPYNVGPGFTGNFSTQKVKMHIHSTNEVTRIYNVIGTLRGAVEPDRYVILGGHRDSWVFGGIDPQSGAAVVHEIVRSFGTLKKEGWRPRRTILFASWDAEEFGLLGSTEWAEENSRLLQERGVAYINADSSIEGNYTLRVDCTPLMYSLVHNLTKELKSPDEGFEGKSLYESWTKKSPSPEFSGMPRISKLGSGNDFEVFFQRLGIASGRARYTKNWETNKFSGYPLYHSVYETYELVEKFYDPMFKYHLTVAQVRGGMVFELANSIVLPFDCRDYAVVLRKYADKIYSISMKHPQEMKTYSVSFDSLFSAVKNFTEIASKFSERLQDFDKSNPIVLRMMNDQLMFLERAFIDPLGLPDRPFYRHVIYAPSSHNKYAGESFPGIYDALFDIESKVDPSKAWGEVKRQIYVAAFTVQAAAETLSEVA

For orientation: IC50 means the concentration that gives 50% inhibition. As to `O=C(O)CCC(NC(=O)NC(CCCCNC(=S)Nc1ccc(CC2CN3CCN4CCN2CC(=O)[O][Ga]([O]C(=O)C4)[O]C(=O)C3)cc1)C(=O)O)C(=O)O` (stereo not shown) [Example 2], the half-inhibitory concentration (IC50) is 18.3 nM.
